{
  "source": "paper PMC10821046",
  "about": "“Harmaline to Human Mitochondrial Caseinolytic Serine Protease Activation for Pediatric Diffuse Intrinsic Pontine Glioma Treatment” (Pharmaceuticals, 2024)",
  "key": {"hClpP": {"target": "T1, hClpP (Homo sapiens, UniProt Q16740)", "T1 construct": "made in house; host or cells: E. coli BL21-CodonPlus (DE3)-RIL", "T1 sequence (Q16740 with tags, fused parts or gaps)": "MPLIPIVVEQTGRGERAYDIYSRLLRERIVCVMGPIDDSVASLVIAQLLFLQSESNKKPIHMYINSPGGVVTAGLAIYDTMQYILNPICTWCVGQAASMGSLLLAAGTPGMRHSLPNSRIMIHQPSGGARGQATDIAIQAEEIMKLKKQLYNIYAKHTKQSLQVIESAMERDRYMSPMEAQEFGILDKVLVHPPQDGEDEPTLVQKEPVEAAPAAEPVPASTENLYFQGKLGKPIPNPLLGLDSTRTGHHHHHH", "test": "FITC-casein hClpP activity test", "assay_type": "biochemical", "conditions": "100 µM, normalized to 100 µM ONC201 activity", "protocol": "To assess the potency of the proteolytic activity of hClpP, a FITC–casein assay was performed. In a black, flat-bottom, 96-well plate, a 3 μM solution of purified hClpP in assay buffer (50 mM of HEPES, pH 7.5, 300 mM of KCl, 1 mM of DTT, 15% v/v glycerol; AB) preincubated at 37 °C for 15 min was added to 5 μL of the tested compounds in DMSO at different concentrations (ranging from 1 to 100 μM) and incubated for 15 min at 37 °C under shaking. As a control, three wells were filled with 5 µL of DMSO. The kinetic measurement was started after adding 2 µM of the fluorogenic peptides FITC and casein (Merck, C3777), used as hydrolytic substrates. The fluorescence of the cleaved FITC was recorded over 60 min at 37 °C on a Tecan Infinite M200 Pro (λex: 485 nm, emission λem: 535 nm, gain: 60). The slope in the linear range between 600 and 1800 s was determined and plotted against time. The EC50 for each tested compound was calculated using GraphPad Prism 7.05. Results are reported as the mean of two independent experiments performed in triplicate."}, "SU-DIPG-50 cells": {"tested_on": "SU-DIPG-50 cells", "test": "2D cell viability assay (CCK8)", "assay_type": "cell-based, human", "conditions": "SU-DIPG-50, 100 µM, 72 h exposure", "protocol": "(§1) Patient-derived diffuse intrinsic pontine glioma cell cultures (SU-DIPG-36, SU-DIPG-50) were provided by Dr Michelle Monje (Institutional Review Board (Stanford University) approval). The cells were cultured as a monolayer in media that was changed once a week at 37 °C in 5% CO2 by using Tumor Stem Media composed by: a 1:1 ratio of DMEM/F12 (Invitrogen)/Neurobasal (-A) (Invitrogen), B27 (-A) (Life Technologies, Milan, Italy), 20 ng/mL of human basic fibroblast growth factor (Life Technologies), 20 ng/mL of recombinant human epidermal growth factor (Life Technologies), 10 ng/mL of platelet-derived growth factor-AA, 10 ng/mL of platelet-derived growth factor-BB (Life Technologies), and 20 ng/mL of heparin (StemCell Technologies, Milan, Italy).\n(§2) Then, 1 × 10^4 SU-DIPG-36 or SU-DIPG-50 cells/well in 100 µL of culture medium were seeded into 96-well plates and incubated O/N at 37 °C in CO2 (5%). […] Control wells with DMSO were used to evaluate the possible cytotoxicity of the solvent. […] Then, the absorbance was red (λ = 450 nm) with Tecan Infinite 200. GraphPad Prism allowed for the determination of IC50."}, "SU-DIPG-36 cells": {"tested_on": "SU-DIPG-36 cells", "test": "2D cell viability assay (CCK8)", "assay_type": "cell-based, human", "conditions": "SU-DIPG-36, 100 µM, 72 h exposure", "protocol": "as §1, §2"}, "SK-N-AS spheroids": {"tested_on": "SK-N-AS spheroids", "test": "3D cell viability assay (CellTiter-Glo 3D, ATP)", "assay_type": "cell-based, human", "conditions": "72 h; for viability at 100 µM: Homo sapiens, SK-N-AS, ATP assay, mean ± SEM; for decrease in cell viability: SK-N-AS spheroids, highest concentration (100 µM)"}, "BCRP": {"target": "T2, BCRP (Homo sapiens, UniProt Q9UNQ0)", "T2 construct": "expressed in transfected cells; host or cells: MDCK-BCRP", "T2 sequence (Q9UNQ0 1-655)": "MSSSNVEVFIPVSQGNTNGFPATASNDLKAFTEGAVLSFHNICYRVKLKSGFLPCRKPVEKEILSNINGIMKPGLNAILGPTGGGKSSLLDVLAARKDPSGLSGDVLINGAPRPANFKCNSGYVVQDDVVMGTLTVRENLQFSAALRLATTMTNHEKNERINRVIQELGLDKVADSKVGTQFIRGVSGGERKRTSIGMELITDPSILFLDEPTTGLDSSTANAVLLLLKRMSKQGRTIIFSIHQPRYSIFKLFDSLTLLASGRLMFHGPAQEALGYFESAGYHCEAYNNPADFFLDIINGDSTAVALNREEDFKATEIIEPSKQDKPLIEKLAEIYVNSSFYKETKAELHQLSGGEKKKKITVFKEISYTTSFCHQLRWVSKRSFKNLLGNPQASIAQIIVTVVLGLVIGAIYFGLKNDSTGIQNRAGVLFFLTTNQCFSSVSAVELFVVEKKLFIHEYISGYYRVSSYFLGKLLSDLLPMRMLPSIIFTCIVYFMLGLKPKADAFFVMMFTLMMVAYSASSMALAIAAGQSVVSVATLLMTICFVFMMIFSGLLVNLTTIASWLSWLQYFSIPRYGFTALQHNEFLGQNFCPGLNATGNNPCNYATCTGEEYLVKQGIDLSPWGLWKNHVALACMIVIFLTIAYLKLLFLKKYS", "test": "Hoechst 33342 experiment in MDCK-BCRP cells", "assay_type": "cell-based", "conditions": "Hoechst 33342, MDCK-BCRP cells", "experimental": "Firstly, 3 × 10^4 MDCK-BCRP cells/well were seeded (100 µL) in a 96-well black culture plate and brought to O/N confluence in a 5% CO2 incubator at 37 °C. Different concentrations (0.1–100 µM) of the compounds in the culture medium (100 µL) to be tested were added, and the plate was incubated for 30 min. […] The supernatant was aspirated, and the cells were fixed for 20 min with 4% PFA (100 µL), protecting them from light. Three washes with ice-cold PBS and three washes with saline buffer followed, and then the plate was analyzed (λex 350 nm and λem 460 nm) by Victor3 (PerkinElmer). EC50 values were calculated from the percentage increase in fluorescence compared to log[dose]."}, "[1]": {"test": "Drug transport experiments, Caco-2 monolayer", "assay_type": "in vitro ADME", "conditions": "human, 1 × 10^−4 M", "from_the_text": "The experiment started with the preparation of the Caco-2 monolayer, which occurred by seeding the cells (20,000/well) in Millicell plates (Millipore, Milan, Italy). Its growth was followed for 21 days by changing the medium occasionally and measuring its transepithelial electrical resistance (TEER) daily using an epithelial voltohmmeter (Millicell-ERS) until at least […] was reached.\nAfter 21 days, the plate was washed twice with Hank’s balanced salt solution (HBSS) (Invitrogen). After the second wash, the wells were filled with buffer, and the plate was kept at 37 °C for 30 min. After the incubation time, the HBSS buffer was replaced with the solutions of the compounds to be tested at a concentration of 1 × 10^−4 M. The plates were placed in an incubator at 37 °C for 120 min. The apparent permeability (Papp), in units of nm s^−1, was calculated."}, "SH-SY-5Y spheroids": {"tested_on": "SH-SY-5Y spheroids", "test": "3D cell viability assay (CellTiter-Glo 3D, ATP)", "assay_type": "cell-based, human", "conditions": "72 h; for viability at 100 µM: Homo sapiens, SH-SY5Y, ATP assay, mean ± SEM; for decrease in cell viability: SH-SY-5Y spheroids, highest concentration (100 µM)"}, "P-gp": {"target": "T3, P-gp (Homo sapiens, UniProt P08183)", "T3 construct": "expressed in transfected cells; host or cells: MDCK-MDR1", "T3 sequence (P08183 whole entry)": "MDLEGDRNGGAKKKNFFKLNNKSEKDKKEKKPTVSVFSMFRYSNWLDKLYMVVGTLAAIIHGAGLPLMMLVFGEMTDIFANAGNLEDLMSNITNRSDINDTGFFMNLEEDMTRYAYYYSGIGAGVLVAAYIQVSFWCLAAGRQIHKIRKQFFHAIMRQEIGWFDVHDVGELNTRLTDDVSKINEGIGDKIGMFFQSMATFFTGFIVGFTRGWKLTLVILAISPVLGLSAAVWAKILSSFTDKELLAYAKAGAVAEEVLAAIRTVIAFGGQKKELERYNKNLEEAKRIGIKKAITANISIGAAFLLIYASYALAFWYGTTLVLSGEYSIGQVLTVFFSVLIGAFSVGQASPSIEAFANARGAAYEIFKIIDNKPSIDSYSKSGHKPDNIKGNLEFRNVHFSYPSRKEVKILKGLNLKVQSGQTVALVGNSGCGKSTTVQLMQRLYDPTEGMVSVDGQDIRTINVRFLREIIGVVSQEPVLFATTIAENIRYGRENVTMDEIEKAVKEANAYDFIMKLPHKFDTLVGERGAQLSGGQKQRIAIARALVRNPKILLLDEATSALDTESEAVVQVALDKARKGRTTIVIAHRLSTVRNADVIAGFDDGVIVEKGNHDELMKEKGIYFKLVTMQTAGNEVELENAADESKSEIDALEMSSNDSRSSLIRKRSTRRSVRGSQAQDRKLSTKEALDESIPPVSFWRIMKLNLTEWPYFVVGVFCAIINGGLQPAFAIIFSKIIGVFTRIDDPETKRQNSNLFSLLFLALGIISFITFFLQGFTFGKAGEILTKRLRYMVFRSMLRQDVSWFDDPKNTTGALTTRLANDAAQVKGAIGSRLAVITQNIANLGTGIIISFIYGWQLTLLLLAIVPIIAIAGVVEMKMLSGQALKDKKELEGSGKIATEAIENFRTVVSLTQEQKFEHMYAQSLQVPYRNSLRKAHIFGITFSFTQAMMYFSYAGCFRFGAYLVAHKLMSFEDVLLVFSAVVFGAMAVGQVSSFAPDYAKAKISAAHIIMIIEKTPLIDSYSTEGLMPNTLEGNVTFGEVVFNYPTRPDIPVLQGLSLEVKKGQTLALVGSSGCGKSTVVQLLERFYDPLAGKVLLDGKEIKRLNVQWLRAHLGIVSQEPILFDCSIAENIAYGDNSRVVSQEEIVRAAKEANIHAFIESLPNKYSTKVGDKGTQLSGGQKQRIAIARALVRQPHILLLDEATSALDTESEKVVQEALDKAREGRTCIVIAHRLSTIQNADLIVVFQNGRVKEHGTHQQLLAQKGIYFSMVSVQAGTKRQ", "test": "Calcein-AM experiment in MDCK-MDR1 cells", "assay_type": "cell-based", "protocol": "Here, 3 × 10^4 MDCK-MDR1 cells/well were seeded (100 µL) in a black 96-well culture plate and incubated in CO2 (5%) at 37 °C O/N. The compounds to be tested were added at different concentrations (0.1–100 µM) in 100 µL of culture medium and then incubated for 30 min. […] The fluorescence of the wells containing the tested compounds was compared with that of those containing the untreated cells. The percentage of fluorescence as a function of log[dose] allowed the EC50 values to be determined."}},
  "data": [
    {"compound": "COc1ccc2c3c([nH]c2c1)C(C)=NCC3", "note": "[Harmaline, 7-methoxy-1-methyl-4,9-dihydro-3H-pyrido[3,4-b]indole]", "values": [
      {"measurement": "activation of hClpP", "setting": "hClpP", "value": 28, "unit": "%"},
      {"measurement": "cancer cell death (cytotoxic effect)", "setting": "SU-DIPG-50 cells", "value": 50, "unit": "%"},
      {"measurement": "cancer cell death (cytotoxic effect)", "setting": "SU-DIPG-36 cells", "value": 34, "unit": "%"},
      {"measurement": "viability at 100 µM", "setting": "SK-N-AS spheroids", "value": "44.2 ± 24.2", "unit": "%"},
      {"measurement": "decrease in cell viability", "setting": "SK-N-AS spheroids", "value": "~ 56%"},
      {"measurement": "EC50", "setting": "BCRP", "value": 14.9, "unit": "µM"},
      {"measurement": "Papp A→B at 120 min", "setting": "[1]; Caco-2, apical-basolateral", "value": 49.6, "unit": "×10⁻⁶ cm/s"},
      {"measurement": "Papp B→A at 120 min", "setting": "[1]; Caco-2, basolateral-apical", "value": 254, "unit": "×10⁻⁶ cm/s"},
      {"measurement": "viability at 100 µM", "setting": "SH-SY-5Y spheroids", "value": "67.5 ± 13.9", "unit": "%"},
      {"measurement": "decrease in cell viability", "setting": "SH-SY-5Y spheroids", "value": "~ 32.5%"},
      {"measurement": "EC50", "setting": "P-gp", "value": "> 100", "unit": "µM"}
    ]},
    {"compound": "Cc1ccccc1CN1C(=O)C2=C(CCN(Cc3ccccc3)C2)N2CCN=C12", "note": "[ONC201, reference compound]", "values": [
      {"measurement": "cancer cell death (cytotoxic effect)", "setting": "SU-DIPG-50 cells", "value": 70, "unit": "%"},
      {"measurement": "cancer cell death (cytotoxic effect)", "setting": "SU-DIPG-36 cells", "value": 83, "unit": "%"},
      {"measurement": "viability at 100 µM", "setting": "SK-N-AS spheroids", "value": "17.5 ± 6.8", "unit": "%"},
      {"measurement": "decrease in cell viability", "setting": "SK-N-AS spheroids", "value": "~ 85%"},
      {"measurement": "viability at 100 µM", "setting": "SH-SY-5Y spheroids", "value": "13.7 ± 6.23", "unit": "%"},
      {"measurement": "decrease in cell viability", "setting": "SH-SY-5Y spheroids", "value": "~ 85%"},
      {"measurement": "EC50", "setting": "P-gp", "value": 13.4, "unit": "µM"}
    ]}
  ]
}
